The results in this text go back to US20260101897A1, “PLANT ENVIRONMENTAL STRESS TOLERANCE IMPROVEMENT AGENT AND ENVIRONMENTAL STRESS TOLERANCE IMPROVEMENT METHOD” (priority 2022, published 2026).

What all share (assay type): in vivo
Data set [1] has as its system Arabidopsis thaliana (Col-0). Put plainly: Evaluation Example 12: tolerance to intense light stress, leaf whitening. The following applies: for Leaf whitening rate: test compound 0.1 mM (12.5 mL), intense light stress Yes (LED light, 24 hours); for Environmental stress suppressing rate: test compound 0.1 mM, intense light stress Yes. On the procedure: EGT and GB were commercially available products, and pure water was used as a solvent. In a plastic pot having a diameter of 60 mm and a height of 55 mm, 90 mL of culture soil (manufactured by Hanagokoro Co., Ltd.) was placed, and 4 individual Arabidopsis thaliana (Col-0) were seeded per pot. They were located in a growth chamber set at room temperature of 22° C., and the light period was 16 hours and the dark period was 8 hours. The light conditions were set such that the light intensity was 5000 lx in the central part under irradiation with the fluorescent lamp. 12.5 mL of EGT or 12.5 mL of GB was added on the 43rd day after seeding, and one day after that, intense light stress was applied by exposure for 24 hours under irradiation of LED light (manufactured by Esbaybulbs Co., Ltd.) with a light intensity set to 2000 μmol/m 2/sec. Whitened leaves of Arabidopsis thaliana subjected to intense light stress were counted, and the leaf whitening rate was evaluated as an index of physiological disorder. The leaf whitening rate and the environmental stress suppressing rate were calculated according to the following formulas. [formula] [formula]

In data set [2] the test system is strawberry (wild strawberry). Description: Evaluation Example 14: tolerance to freezing stress, plant mortality. The following applies: for Environmental stress suppressing rate: freezing stress Yes. As for the experimental part: EGT (Example 18, Comparative Example 60) or GB (Comparative Examples 59 and 61) was prepared so as to have the concentration shown in Table 14 below. EGT and GB were commercially available products, and pure water was used as a solvent.
5 mL of pure water was added to 9-cm petri dishes on which filter paper was placed, and 10 seeds of strawberry (wild strawberry) were seeded per dish. They were located in a growth chamber set at room temperature of 22° C., and the light period was 16 hours and the dark period was 8 hours. The light conditions were set such that the light intensity was 5000 lx in the central part under irradiation with the fluorescent lamp.
On the 15th day after seeding, pure water in the petri dish was removed, and then 5 mL of EGT or 5 mL of GB was added, and 9 days after that, freezing stress was applied by exposure to an environment of −20° C. for 20 minutes.
The surviving plants were counted 3 days after the freezing stress was applied, and the mortality rate of the plants was evaluated as an index of physiological disorder. The mortality rate and the environmental stress suppressing rate were calculated according to the following formulas.

Data set [3] concerns Arabidopsis thaliana (Col-0). Description: Evaluation Example 5: tolerance to excessive nutrient stress, leaf wilting. The following applies: for leaf wilting due to excessive nutrient stress, result in words: 0.5 mM; for Leaf wilting rate: test compound 0.5 mM (50 mL), excessive nutrient stress Yes (liquid fertilizer at 5-fold dilution), one day after stress; for Environmental stress suppressing rate: test compound 0.5 mM, excessive nutrient stress Yes. As for the experimental part: EGT and GB were commercially available products, and pure water was used as a solvent.
One individual Arabidopsis thaliana (Col-0) was seeded in a plastic pot having a diameter of 60 mm and a height of 55 mm. Plastic deep dishes each having a diameter of 160 mm and a height of 28 mm were prepared, and four pots were respectively placed therein. As soil, 45 mL of vermiculite, 22.5 mL of granular soil (Kumiai horticultural soil), and 22.5 mL of vermiculite were placed in the pot in this order.
They were located in a growth chamber set at room temperature of 22° C., and the light period was 16 hours and the dark period was 8 hours. The light conditions were set such that the light intensity was 5000 lx in the central part under irradiation with the fluorescent lamp. Water supply was conducted from the bottom, and the water level was set at about 5 mm. On the 61st day after seeding, 50 mL of EGT or 50 mL of GB was added, and one day after that, a liquid fertilizer (HYPONeX, manufactured by Hyponex Japan Corp., Ltd.) was applied at a 5-fold dilution to give excessive nutrient stress.
The number of wilted leaves was evaluated one day after the excessive nutrient stress was applied. The leaf wilting rate and the environmental stress suppressing rate were calculated according to the following formulas.

In a further data set the test system is turf (Manila grass). Put plainly: Evaluation Example 11: tolerance to ultraviolet stress, leaf mortality. The following applies: for Environmental stress suppressing rate: ultraviolet stress Yes. As for the experimental part:
EGT (Examples 14 and 15, Comparative Examples 45 and 46) or GB (Comparative Examples 43, 44, 47 and 48) was prepared so as to have a concentration shown in Table 11 below. EGT and GB were commercially available products, and pure water was used as a solvent.
Turf (Manila grass) cut into a 50 mm square was placed on a petri dish and managed in a greenhouse at room temperature of 25° C. The plant height was trimmed to the length of 10 mm. 10 mL of EGT or 10 ml of GB was added per petri dish, and one day after that, ultraviolet stress was applied by exposure for one hour under irradiation with an ultraviolet lamp (GL-15, manufactured by Toshiba Corporation) with the intensity of ultraviolet radiation of a wavelength of 254 nm set to 525 μW/cm^−2.
Dead leaves were counted 7 days after the ultraviolet stress was applied, and the leaf mortality rate was evaluated as an index of physiological disorder. The leaf mortality rate and the environmental stress suppressing rate were calculated according to the following formulas.

Data set [4] concerns Arabidopsis thaliana (Col-0). Description: Evaluation Example 1: tolerance to salt stress, plant mortality. On the procedure:
L-(+)-ergothioneine (Examples 1 and 2 and Comparative Example 3) and glycine betaine (Comparative Examples 1 and 2 and Comparative Example 4) were prepared so as to have the concentrations shown in Table 1 below. EGT and GB were commercially available products, and pure water was used as a solvent.
Three individuals of Arabidopsis thaliana (Col-0) were seeded per well in a 24-well cell culture plate. Mixed salts for Murashige and Skoog medium (Fujifilm Wako Pure Chemical Industries, Ltd.) to which 1 wt. % of sucrose and 0.1 wt. % of agar-agar powder were added was used as a liquid medium, and the liquid medium was placed in a 2 mL per well.
They were located in a growth chamber set at room temperature of 22° C., and the light period was 16 hours and the dark period was 8 hours. The light conditions were set such that the light intensity was 5000 lx in the central part under irradiation with the fluorescent lamp. On the fourth day after seeding, EGT or GB was added so as to give a predetermined concentration, and 24 hours later, an aqueous sodium chloride solution was added so as to give a final 100 mM concentration, thereby giving a salt stress.
The number of surviving plants was counted on the 10th day after seeding, and the plant mortality rate was evaluated as an index of physiological disorder. The mortality rate and the environmental stress suppressing rate were calculated according to the following formulas.

Setting [5] is: test compound 0.1 mM (5 mL), freezing stress Yes (−20° C. for 20 minutes), 3 days after stress.
Where [6] appears, read: test compound 0.1 mM, freezing stress No.
[7] abbreviates: test compound 0.1 mM (10 mL), ultraviolet stress Yes (254 nm, one hour), 7 days after stress.
Where [8] appears, read: test compound 0.1 mM, ultraviolet stress No.
[9] abbreviates: test compound 1 mM (10 mL), ultraviolet stress Yes (254 nm, one hour), 7 days after stress.
Setting [10] is: test compound 1 mM, ultraviolet stress No.
[11] abbreviates: test compound 0.1 mM, salt stress Yes (100 mM sodium chloride).
Setting [12] is: test compound 0.1 mM, salt stress Yes (100 mM sodium chloride), 10th day after seeding.
Where [13] appears, read: test compound 1 mM, salt stress No.
Where [14] appears, read: test compound 1 mM, salt stress Yes (100 mM sodium chloride).
Where [15] appears, read: test compound 1 mM, salt stress Yes (100 mM sodium chloride), 10th day after seeding.

`C[N+](C)(C)[C@@H](Cc1c[nH]c(=S)[nH]1)C(=O)[O-]` [EGT, L-(+)-ergothioneine] gave a Leaf whitening rate in data set [1] of 8%. Also, the “Environmental stress suppressing rate” value in data set [1] came out at 78%; in data set [2] (test compound 0.1 mM), 54%; in data set [3] it was 76%; in the data set with turf (Manila grass) (test compound 0.1 mM) it was 79%; in the data set on turf (Manila grass) (test compound 1 mM) it was 90%; in data set [4] (setting [11]), 48%. The “Environmental stress suppressing rate” value in data set [4] (setting [14]) was 81%. Besides, the Mortality rate in data set [2] (setting [5]) stood at 29%; in data set [2] (setting [6]) it was 0%; in data set [4] (setting [12]), 39%; in data set [4] (setting [13]) it was 0%; in data set [4] (setting [15]), 14%. Further, in data set [3], the “leaf wilting due to excessive nutrient stress, result in words” value is recorded as “suppressed”. Further, the Leaf wilting rate in data set [3] was determined as 24%. In addition, the Leaf mortality rate was 13% with turf (Manila grass) (setting [7]), 2% in the data set with turf (Manila grass) (setting [8]), 6% with turf (Manila grass) (setting [9]) and 0% in the data set with turf (Manila grass) (setting [10]).

Take `C[N+](C)(C)CC(=O)[O-]` [GB, glycine betaine, reference compound]: the “leaf whitening due to intense light stress, result in words” value in data set [1] (0.1 mM, intense light stress) is given as “not suppressed”. The Leaf whitening rate in data set [1] is reported as 40%. The “Environmental stress suppressing rate” value in data set [1] amounted to 0%; in data set [2] (test compound 0.1 mM), 0%; in data set [3], 11%; in the data set on turf (Manila grass) (test compound 0.1 mM), 14%; in the data set on turf (Manila grass) (test compound 1 mM) it was 6%; in data set [4] (setting [11]), 0%. Moreover, the “Environmental stress suppressing rate” value in data set [4] (setting [14]) is reported as 0%. Moreover, in data set [2] (0.1 mM, freezing stress), the “mortality rate due to freezing stress, result in words” value was “not suppressed”. Further, the Mortality rate in data set [2] (setting [5]) is given as 63%; in data set [2] (setting [6]), 0%; in data set [4] (setting [12]), 79%; in data set [4] (setting [13]) it was 0%; in data set [4] (setting [15]), 75%. The “leaf wilting due to excessive nutrient stress, result in words” value in data set [3] was “hardly suppressed”. The compound also gave a Leaf wilting rate in data set [3] of 89%. Further, the “mortality rate due to ultraviolet stress, result in words” value with turf (Manila grass) (GB 1 mM and 0.1 mM, ultraviolet stress) was “hardly suppressed”. The Leaf mortality rate was 54% in the data set with turf (Manila grass) (setting [7]), 2% in the data set on turf (Manila grass) (setting [8]), 59% with turf (Manila grass) (setting [9]) and 0% in the data set with turf (Manila grass) (setting [10]). In addition, the “death due to salt stress, result in words” value in data set [4] (GB treatment 1 mM and 0.1 mM, salt stress) is given as “not suppressed”.
